Reference: patent US20040234610A1, “Medical device and method for inhalation of aerosolized drug with heliox” (priority 2001, published 2004)
“And” between values parts separate entries of the source, which are not always exact repeats. Equal entries are not always repeated.

Test: Nebulized particle size distribution by Anderson Cascade Impactor, RES-Q-Neb (T and Y design) vs HOPE nebulizer
Type: physicochemical
Method: A study was conducted to compare the performance of two embodiments of the heliox nebulization system described herein (called the RES-Q-Neb™ Nebulizer) with a commercially available nebulizer (HOPE™, B&B Medical Technologies, Inc., Orangevale, Calif., USA) that is driven by air.
Measurements were done using an Anderson Cascade Impactor (ACI) operated at an air flow rate of 28.3 L/min. The nebulizers were connected one at a time to the same tee piece and collar. The ACI consisted of eight stages, a backup filter, and an inlet (USP throat).
Gas flows through the nebulizers and impactor were controlled with rotameters, which were set with the DryCal Flow Calubrator (BIOS International Co., Pomton Plains, N.J.).
Heliox (80% helium, 20% oxygen) at 18 L/min was used to drive the RES-Q-Neb Nebulizer and another 18 L/min of the heliox was introduced into the system at the reservoir bag side port. […] The HOPE nebulizer was driven with compressed air at 10 L/min (as directed in its included label and instructions), and 18 L/min of heliox was introduced into the system at a side port, as shown in FIG. 10.
A pre-running time was used for each test to stabilize the generation of aerosol. The RES-Q-Neb nebulizer was pre-run for 15 s, and the HOPE nebulizer was pre-run for 30 s. Six tests were run with the RES-Q-Neb nebulizer at the same conditions (3 with the “Y” adaptor and 3 with the “T” adaptor) and five tests were run with the HOPE nebulizer at the same conditions.
After each test, the ACI and empty nebulizers were disassembled and washed with deionized water. The wash water was collected and the amount of drug remaining or collected was determined using spectrophotometric analysis at 224 nm.
The particle sizes are expressed as 50% mass median aerodynamic diameters (MMAD).

[1] = HOPE nebulizer, compressed air 10 L/min nebulizer + heliox 18 L/min side port
[2] = HOPE nebulizer, compressed air 10 L/min nebulizer + heliox 18 L/min side port, mean of 5 tests
[3] = HOPE nebulizer, compressed air 10 L/min nebulizer + heliox 18 L/min side port, single tests, listed as Albuterol sulfate
[4] = RES-Q-Neb T design, heliox 18 L/min nebulizer + 18 L/min side port
[5] = RES-Q-Neb T design, heliox 18 L/min nebulizer + 18 L/min side port, mean of 3 tests
[6] = RES-Q-Neb T design, heliox 18 L/min nebulizer + 18 L/min side port, single tests, listed as Albuterol sulfate
[7] = RES-Q-Neb Y design, heliox 18 L/min nebulizer + 18 L/min side port (18-18 lpm)
[8] = RES-Q-Neb Y design, heliox 18 L/min nebulizer + 18 L/min side port, mean of 3 tests
[9] = RES-Q-Neb Y design, heliox 18 L/min nebulizer + 18 L/min side port, single tests, listed as Albuterol sulfate

Structure (SMILES): CC(C)(C)NCC(O)c1ccc(O)c(CO)c1 (stereo not shown) [albuterol]
- 0.7 ≦ Mean Fraction < 5.8 μm [1]: 0.503
- Mean Fraction < 0.7 μm [1]: 0.052
- Mean Fraction at Midpoint = 1.52 μm [1]: 0.227
- Mean Fraction ≧ 5.8 μm [1]: 0.446
- Mean Fraction, Collar [2]: 0.009
- Mean Fraction, Filter (cut-size <0.4 micron) [2]: 0.015
- Mean Fraction, Stage 0 (cut-size 9 micron) [2]: 0.110
- Mean Fraction, Stage 1 (cut-size 5.8 micron) [2]: 0.151
- Mean Fraction, Stage 2 (cut-size 4.7 micron) [2]: 0.044
- Mean Fraction, Stage 3 (cut-size 3.3 micron) [2]: 0.099
- Mean Fraction, Stage 4 (cut-size 2.1 micron) [2]: 0.119
- Mean Fraction, Stage 5 (cut-size 1.1 micron) [2]: 0.227
- Mean Fraction, Stage 6 (cut-size 0.7 micron) [2]: 0.014
- Mean Fraction, Stage 7 (cut-size 0.4 micron) [2]: 0.037
- Mean Fraction, Tee Piece [2]: 0.060
- Mean Fraction, Throat (cut-size >9 micron) [2]: 0.034
- Mean Fraction, Tube [2]: 0.082
- Fraction, Stage 1 (cut-size 5.8 micron) [3]: 0.139 and 0.164 and 0.154 and 0.138 and 0.160
- Fraction, Stage 2 (cut-size 4.7 micron) [3]: 0.039 and 0.047 and 0.044 and 0.045
- Fraction, Stage 3 (cut-size 3.3 micron) [3]: 0.088 and 0.110 and 0.109 and 0.090 and 0.099
- Fraction, Tee Piece [3]: 0.066 and 0.056 and 0.058 and 0.052 and 0.069
- Fraction, Throat (cut-size >9 micron) [3]: 0.033 and 0.037 and 0.036 and 0.030 and 0.035
- Fraction, Tube [3]: 0.105 and 0.077 and 0.073 and 0.081 and 0.074
- 0.7 ≦ Mean Fraction < 5.8 μm [4]: 0.697
- Mean Fraction < 0.7 μm [4]: 0.218
- Mean Fraction at Midpoint = 1.52 μm [4]: 0.519
- Mean Fraction ≧ 5.8 μm [4]: 0.086
- mean output rate [4]: 0.54 mL/min
- Mean Fraction, Adapter [5]: 0.033
- Mean Fraction, Collar [5]: 0.008
- Mean Fraction, Filter (cut-size <0.4 micron) [5]: 0.044
- Mean Fraction, Stage 0 (cut-size 9 micron) [5]: 0.010
- Mean Fraction, Stage 1 (cut-size 5.8 micron) [5]: 0.015
- Mean Fraction, Stage 2 (cut-size 4.7 micron) [5]: 0.005
- Mean Fraction, Stage 3 (cut-size 3.3 micron) [5]: 0.009
- Mean Fraction, Stage 4 (cut-size 2.1 micron) [5]: 0.061
- Mean Fraction, Stage 5 (cut-size 1.1 micron) [5]: 0.519
- Mean Fraction, Stage 6 (cut-size 0.7 micron) [5]: 0.103
- Mean Fraction, Stage 7 (cut-size 0.4 micron) [5]: 0.174
- Mean Fraction, T-Piece [5]: 0.017
- Mean Fraction, Throat (cut-size >9 micron) [5]: 0.003
- Fraction, Filter (cut-size <0.4 micron) [6]: 0.037 and 0.049 and 0.045
- Fraction, Stage 7 (cut-size 0.4 micron) [6]: 0.148 and 0.166 and 0.207
- mean output rate (RES-Q-Neb Y design, heliox 18 L/min nebulizer + 18 L/min side port): 0.59 mL/min
- 0.7 ≦ Mean Fraction < 5.8 μm [7]: 0.657
- Mean Fraction < 0.7 μm [7]: 0.239
- Mean Fraction at Midpoint = 1.52 μm [7]: 0.422
- Mean Fraction ≧ 5.8 μm [7]: 0.105
- Mean Fraction, Adapter [8]: 0.040
- Mean Fraction, Collar [8]: 0.009
- Mean Fraction, Filter (cut-size <0.4 micron) [8]: 0.053
- Mean Fraction, Stage 0 (cut-size 9 micron) [8]: 0.012
- Mean Fraction, Stage 1 (cut-size 5.8 micron) [8]: 0.019
- Mean Fraction, Stage 2 (cut-size 4.7 micron) [8]: 0.007
- Mean Fraction, Stage 3 (cut-size 3.3 micron) [8]: 0.010
- Mean Fraction, Stage 4 (cut-size 2.1 micron) [8]: 0.072
- Mean Fraction, Stage 5 (cut-size 1.1 micron) [8]: 0.422
- Mean Fraction, Stage 6 (cut-size 0.7 micron) [8]: 0.146
- Mean Fraction, Stage 7 (cut-size 0.4 micron) [8]: 0.186
- Mean Fraction, Throat (cut-size >9 micron) [8]: 0.004
- Mean Fraction, Y-Piece [8]: 0.021
- Fraction, Filter (cut-size <0.4 micron) [9]: 0.056 and 0.060 and 0.043
- Fraction, Stage 1 (cut-size 5.8 micron) [9]: 0.014 and 0.023 and 0.020
- Fraction, Stage 6 (cut-size 0.7 micron) [9]: 0.148 and 0.144
- Fraction, Stage 7 (cut-size 0.4 micron) [9]: 0.169 and 0.180 and 0.208
- Fraction, Y-Piece [9]: 0.026 and 0.022 and 0.015
- less particles >5.8 μm, present device/method vs HOPE nebulizer (less than HOPE): approximately 34%
- greater fraction of particles ≥0.7 and <5.8 μm (breathable range), present device/method vs HOPE nebulizer (more than HOPE): approximately 20%
- more particles <0.7 μm, present device/method vs HOPE nebulizer (more than HOPE): about 15%
- more particles with a midpoint diameter of 1.52 μm, present device/method vs HOPE nebulizer (more than HOPE): approximately 22%
